Experimental data published in patent US10328083B1, “Compositions and methods for treating stroke” (University of South Florida, priority 2012, dated 2019).
Structures can show the parent of a compound that is named as a salt.

Legend:
Assay type in all cases: in vivo
[1] = tested on: permanent middle cerebral artery occlusion (MCAO) in rats; experiment: Fluoro-Jade staining of neural biopsies from the site of the infarct after permanent MCAO
Method: (§1) Permanent middle cerebral artery occlusion (MCAO) was induced in rats. Post MCAO, conivaptan was administered to the rat via jugular catheter at varying times and dosages. The conivaptan used was VAPRISOL® which is a conivaptan hydrochloride premixed in 5% dextrose at 20 mg/100 ml in 100 ml IV bag. The conivaptan was purchased from Astellas Pharma USA, Inc. (lot#0789065) and sub-aliquoted into sterile foil-covered vials.
(§2) For rats receiving the 6-hour treatment, 0.5 ml (0.35 mg/kg) bolus conivaptan was administered six hours post MCAO, followed by administrations of 0.1 ml (0.07 mg/kg) conivaptan at nine hours post MCAO. At 20, 24, 28, and 32 hours post MCAO, 0.1 ml (0.07 mg/kg) conivaptan was administered. A saline control (1.4 ml of 0.9% saline) was then injected at 44 hours post MCAO. At 48 hours post MCAO, the rats were euthanized.
(§3) For rats receiving the 24-hour treatment, 0.5 ml (0.35 mg/kg) bolus conivaptan was administered 24 hours post MCAO, followed by administrations of 0.1 ml (0.07 mg/kg) conivaptan at 20, 24, 28 and 32 hours post MCAO. Saline controls (1.4 ml of 0.9% saline) were injected at 6, 9, and 44 hours post MCAO. At 48 hours post MCAO, the rats were euthanized.
Fluoro-Jade staining of neural biopsies obtained from the site of the infarct was also performed and the results are shown in Table 2.

[2] = tested on: permanent middle cerebral artery occlusion (MCAO) in rats; experiment: Results of treatment post MCAO (Table 3; CD11b staining of infarct and surrounding areas per FIGS. 2-4); conditions: treatment started 6 h post MCAO; rats euthanized at 48 h post MCAO
Method: FIG. 1 is a table showing the conivaptan treatment regimens. The five treatment groups were normal saline (control)[NS], 5% saline infusion+5% saline maintenance [5% IM], conivaptan only [C], conivaptan+5% saline maintenance [C5% M], and conivaptan+5% saline infusion+5% saline maintenance [C5% IM]. (Euth.=euthanized).
FIG. 4 is a graph showing the average area fraction of CD11b staining at 48 hours post MCAO following the various treatments.
as §1, with “MCAO, conivaptan, hyper saline or normal saline” for “MCAO, conivaptan”, “the rats” for “the rat”, “was Vaprisol®” for “was VAPRISOL®”, “vials. Hyper saline solutions were 5% NaCl. Saline solutions were 0.9% NaCl.” for “vials.”
as §2, with “six-hour” for “6-hour”, “6” for “six”, “9” for “nine”, “euthanized. […]” for “euthanized.”

[3] = tested on: permanent middle cerebral artery occlusion (MCAO) in rats; experiment: Mortality rate prior to euthanization after permanent MCAO; conditions: for FD: jugular catheter, up to 48 h post MCAO
Method: as §1, §2, §3
The mortality rate prior to euthanization is provided below in Table 1: […]

Cc1nc2c([nH]1)-c1ccccc1N(C(=O)c1ccc(NC(=O)c3ccccc3-c3ccccc3)cc1)CC2 [conivaptan, conivaptan hydrochloride]
Fluoro-Jade staining Avg ([1]; 6-hour treatment, n = 7, p = .06 compared to controls): 38.331 g | decrease in Fluoro-Jade staining compared to controls ([1]; 6-hour treatment, p = .06): *p = .06 compared to controls 37% decrease | Fluoro-Jade staining Avg ([1]; 24-hour treatment, n = 5, p = 0.3 compared to controls): 55.388 g | Avg (Table 3, results of treatment) [2]: 0.486 | FD ([3]; 6-hour treatment: 0.35 mg/kg bolus 6 h post MCAO, then 0.07 mg/kg at 9, 20, 24, 28, 32 h): 2 | % Survival ([3]; 6-hour treatment, prior to euthanization at 48 h post MCAO): 78% | % Survival (total) ([3]; 6-hour treatment, value in brackets (total), prior to euthanization at 48 h post MCAO): 82% | FD ([3]; 24-hour treatment: 0.35 mg/kg bolus 24 h post MCAO, then 0.07 mg/kg doses): 4 | % Survival ([3]; 24-hour treatment, prior to euthanization at 48 h post MCAO): 56%
